Experimental findings from publication PMC8395335, “Serotonergic–Muscarinic Interaction within the Prefrontal Cortex as a Novel Target to Reverse Schizophrenia-Related Cognitive Symptoms” (International Journal of Molecular Sciences, 2021) are described below.

Series [1] concerns MK-801-treated mice. Nature of the series: Novel object recognition (NOR) test, MK-801-induced deficits. The class given is in vivo. Here is the method: (§1) Drugs were administered on two different schedules: (1) acute administration of compounds 45 min (WAY100635—5-HT1A antagonist) or 30 min (VU0357017, VU152100, VU0238429, and F15599) before MK-801 (also administered once 30 min before the test in Y-maze or T1 in NOR test); and (2) prolonged administration (once per day for 7 consecutive days) of the compounds and MK-801 with the last administration 24 h before the test (NOR test) or at the day of the test (Y-maze). […] Schedules of administration are presented graphically in Figure 2. The subeffective doses of the compounds for acute administration in the NOR test were chosen based on our previous research (see: [22, 23]) while dose-dependent studies of the activity of the compounds in reversing disruptions in the Y-maze or after prolonged administration along with MK-801 were performed within this study. Different vehicles were used throughout the study: (1) 0.9% NaCl and (2) 10% Tween 80. Vehicles were administered to all animals (e.g., control mice and MK-801-treated mice) on the same schedule as drugs were administered to the appropriate drug-treated groups of mice. Neither solvent exerted effects on animal behavior.
(§2) Male Albino Swiss mice (Charles River, Sulzfeld, Germany) weighing 20–25 g at the beginning of the experiments were used in the studies. The animals were housed in a room with a 12:12 h light-dark cycle at a temperature of 22 ± 1 °C with food and water available ad libitum. The experimental groups consisted of 8–10 animals. All drugs were administered intraperitoneally (i.p.) at a volume of 10 mL/kg. The behavioral experiments were performed by an observer who was blinded to the treatment. The procedures were conducted in accordance with the European Communities Council Directive of 22 September 2010 (2010/63/EU) and Polish legislation acts concerning animal experimentation and were approved by the II Local Ethics Committee by the Maj Institute of Pharmacology, Polish Academy of Sciences in Krakow (15/2020, 240/2020).
(§3) In acute experiments, the tested compounds (alone or in combination) were administered 30 min before MK-801 (0.3 mg/kg), which was administered 30 min before the test or training trial (T1) in the NOR test. In chronic experiments, the tested compounds (alone or in combination) and MK-801 were administered for seven days. Behavioral tests were performed on the eighth day.
The NOR test was performed as described previously. Briefly, the habituation, training and test trial were carried out in a dark room in a black, plastic rectangular arena illuminated with a 355 lux bulb. During the habituation trial, the animals were allowed to explore the arena in the absence of objects (10 min/day for 2 days). The next day, the training (T1) and test (T2) trials were performed. Throughout T1, mice were allowed to freely explore two identical objects (5 min), one of which was subsequently replaced by a novel object in T2 (1 h later, 5 min of exploration). Time spent exploring (i.e., sniffing or touching) the familiar (Tfamiliar) or novel object (Tnovel) was measured by a trained observer, and then the recognition index was calculated for each mouse [(Tnovel − Tfamiliar)/(Tfamiliar + Tnovel)] × 100.

Series [2] has as its system MK-801-treated mice. The experiment in a line: Y-maze test (spontaneous alternations), MK-801-induced deficits. The class given is in vivo. Here is the method: as §1, §2, §3
The Y-maze was performed using the methods described by Miedel et al. and Kraeuter et al. with minor modifications. A black, wooden Y-shaped apparatus with equal length arms (labeled A, B, or C) spaced 120 apart was used in the behavioral experiment. Visual clues were placed inside the maze and mounted to the back wall of each arm. The experiment was performed in a well-lit room. The mice were placed in the same starting arm and were allowed to freely explore the maze for 8 min. After each trial, the maze was wiped clean. The sequence and the number of arm entries were recorded to calculate the percentage of spontaneous alternations using the following formula: [(Number of alternations)/(Total arm entries − 2)] × 100. An arm entry was scored if the animal entered the arm with all paws. Consecutive entries into three distinct arms were scored as an alternation (e.g., ACB, but not ACA) in which sequences could overlap (e.g., ACBACABAC represents […] alternations).

Series [3] is described as follows: Pharmacokinetic analysis of drug-drug interactions (plasma, FC concentration, FC penetration). The class given is in vivo, mice. Particulars: Albino Swiss, mouse, in vivo, 30 min. Here is the method:
The experiment was performed using the methods described by Bridges et al. and in our previous studies.
The pharmacokinetic analysis was performed in the blood and prefrontal cortex. […] Plasma and FC samples were stored at −80 °C until analysis.
The investigated compounds were administered alone at the top dose (F15599—0.1 mg/kg, VU0357017—5 mg/kg, VU0152100—1 mg/kg, and VU0238429—5 mg/kg) and in combinations of muscarinic ligands at subeffective doses with F15599 at subeffective dose (F15599 + VU0357017 0.05 and 0.15 mg/kg, F15599 + VU0152100 0.05 and 0.05 mg/kg, F15599 + VU0238429 0.05 and 1 mg/kg). The FC and blood were collected on the eighth day, 30 min after administration. All mice were parallelly treated with MK-801 (0.3 mg/kg) for seven consecutive days.
On the day of analysis, frozen whole mouse brain tissues were weighed and homogenized in 1:2 (w/v) volumes of ice-cold acetonitrile containing 0.1% FA and the internal standard mix. Samples were homogenized using a Metal Bead Lysing Matrix, vortexed for 1 min, shaken for 20 min at 4 °C on Thermomixer C, and centrifuged at 14,000× g rpm for 20 min at 4 °C. Finally, 50 µL of supernatant were diluted with 0.1% FA in water (1:1, v/v) and analyzed using HPLC/MS/MS.
The sample extraction of plasma (20 μL) was performed after spiking with the internal standard mix using the protein precipitation method and three volumes of ice-cold acetonitrile containing 0.1% formic acid. The extract was vortexed, incubated on ice for 20 min and centrifuged at 14,000× g rpm for 20 min at 4 °C. The supernatant was diluted with 0.1% FA in water (1:1, v/v) and analyzed by means of HPLC/MS/MS using a QTRAP 4500 (AB Sciex) mass spectrometer in positive ion mode in Multiple Reaction Monitoring (MRM screening) coupled with UHPLC (NEXERA XR, Shimadzu). Chromatographic separation was achieved on a Synergi 4 µm Fusion-RP 80 A 50 × 2 mm (Phenomenex) column at a flow rate of 0.2 mL/min. The gradient program was as follows: 20% B (0.3 min), 20–100% B (1.7 min), 100% B (3 min), 100–20% B (0.1 min), 20% B (2 min), solvent A (95:5:0.1% formic acid in water:methanol) and solvent B (methanol containing 0.1% formic acid). The column temperature was set to 40 °C. Analyst software was used to control the instrument and collect data. The ion transfer tube temperature was 300 °C. The spray voltage, collision energy, declastering potential, and gas parameters were optimized to achieve the maximal response using the test compounds. Selected reaction monitoring was carried out using the transition parameters. Calibration curves were constructed, and a linear response was obtained in the range of 0.25–500 ng/mL (VU357017, VU0152100, and F15599) and 1.25–2500 ng/mL (VU0238429) by spiking known amounts of each compound in blank brain homogenates and plasma. For VU0357017 and F15599 IS VU0152100 was used as internal standard. Sample concentration of internal standard was 100 ng/mL for IS VU0238429 and 50 ng/mL for IS VU0152100.
Brain penetration was calculated as FC/plasma ratio × 100%.

Structures are written as SMILES.

Regarding `COc1ccccc1N1CCN(CCN(C(=O)C2CCCCC2)c2ccccn2)CC1` [WAY100635], the “Effect of WAY100635 on the pro-cognitive effect of muscarinic ligand in the NOR test” value in series [1] (acute, WAY100635 0.1 mg/kg 15 min before VU0152100 (1 mg/kg)) was “reversed the pro-cognitive effect”; in series [1] (acute, WAY100635 0.1 mg/kg 15 min before VU0238429 (5 mg/kg)), “reversed the pro-cognitive effect”; in series [1] (acute, WAY100635 0.1 mg/kg 15 min before VU0357017 (5 mg/kg)), “reversed the pro-cognitive effect”.
On to `COc1ccc(CNC(=O)c2sc3nc(C)cc(C)c3c2N)cc1` [VU0152100], for which the “Reversal of MK-801-induced disruptions in Y-maze by combined administration” value in series [2] (7 days, F15599 0.025 mg/kg with VU0152100 0.05 mg/kg (subeffective doses)) is listed as “did not reverse”. Further, the “Reversal of MK-801-induced reduction in spontaneous alternations in the Y-maze” value in series [2] (acute, 0.1-5 mg/kg i.p.) is “No efficacy”. Also, the “Effect of combined administration on spontaneous alternations in the Y-maze test” value in series [2] (acute, F15599 0.1 mg/kg with VU0152100 1 mg/kg, MK-801-treated) is listed as “no effect”. For the same compound, the “Increase of FC penetration after prolonged administration compared to acute” value in series [3] is on record as “ca. 50%”. Besides, in series [3], the “Increase of FC penetration when administered concomitantly with F15599” value is “more than 50%”. For the same compound, the “Reversal of MK-801-induced deficits in the NOR test (recognition index)” value is “activity of VU0152100 was observed” in series [1] (7 days with MK-801, 0.1 mg/kg i.p.); “activity of VU0152100 was observed” in series [1] (7 days with MK-801, 1 mg/kg); “ineffective” in series [1] (7 days with MK-801, dose of 0.05). Besides, the “Reversal of MK-801-induced disruptions in NOR test by combined administration” value in series [1] (7 days, F15599 0.05 mg/kg with VU0152100 0.05 mg/kg (subeffective doses)) is listed as “reversed”. Besides, the “Effect of top dose on MK-801-induced deficits in the NOR test” value in series [1] (acute, 1 mg/kg i.p., alone) was “pro-cognitive effect”. The “Effect of combined administration on MK-801-induced memory deficits in the NOR test” value in series [1] (acute, subeffective doses, F15599 with VU0152100) is listed as “no effect”.
With `C[C@]12N[C@H](Cc3ccccc31)c1ccccc12` [MK-801], the “Disruption of spontaneous alternations in the Y-maze” value in series [2] (acute MK-801 (0.3 mg/kg) 30 min before test) is recorded as “induced typical disruption”. Further, the “Disruptive effect on animals' behavior in Y-maze” value in series [2] (prolonged MK-801, test performed 24 h after the last administration) is given as “lack of MK-801 disruptive effect”. Besides, the “Disruption in the recognition index (NOR)” value is reported as “induced typical disruption” in series [1] (acute MK-801 (0.3 mg/kg) 30 min before T1) and “induced a typical disruption” in series [1] (seven days of MK-801 administration).
